Values quoted from earlier work in US20040042990A1, “Composition containing oxidation-sensitive hydrophilic active principle and maleic anhydride copolymer, and use thereof” (L'OREAL, Paris, France, priority 2002, published 2004).

System: reconstructed skin

SMILES: O=C1O[C@H]([C@@H](O)CO)C([O-])=C1OP(=O)([O-])[O-].O=C1O[C@H]([C@@H](O)CO)C([O-])=C1OP(=O)([O-])[O-].[Mg+2].[Mg+2].[Mg+2] [magnesium ascorbyl phosphate]
- number of fibroblasts in the lattice (reconstructed skin culture medium): significant increase
- synthesis of proteins of the extracellular matrix (collagens IV and VII, laminin) (reconstructed skin, in particular at the dermoepidermal junction): significant stimulation
